# Reference: the supplement of paper PMC10307832
# Legend:
# Test in all cases: relative viability (nuclei count vs DMSO), 5 days (fraction); higher = more cells survive
# [1] = compound: C1=CC2=NC=CN=C2C=C1/C=C/3\C(=O)NC(=O)S3 + COc1cccc2cc(-c3nc([C@H]4CC[C@H](C(=O)O)CC4)n4ncnc(N)c34)[nH]c12 [OSI-027] (partner 0.5 µM)
# In short: (§1)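 After 5 days of treatment, lung cancer cells in 1536-well plates were fixed and stained in a single step (final 0.05% Triton X-100, 1% formaldehyde, 1 ug/ml Hoechst) and their nuclei counted on 4× images. Treatment had been applied by pin tool the day after seeding as one drug alone or as a fixed anchor-drug dose with five library-drug doses (not always all listed) in √10 steps. Relative viability is the nuclei count of treated wells divided by that of vehicle wells, and values are medians of duplicate plates.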
# [2] = compound: C1=CC2=NC=CN=C2C=C1/C=C/3\C(=O)NC(=O)S3 + Cc1nc(Nc2ncc(C(=O)Nc3c(C)cccc3Cl)s2)cc(N2CCN(CCO)CC2)n1 [Dasatinib] (partner 0.075 µM)
# In short: as §1
# [3] = compound: C1=CC2=NC=CN=C2C=C1/C=C/3\C(=O)NC(=O)S3 + Cc1cc(Nc2cc(N3CCN(C)CC3)nc(Sc3ccc(NC(=O)C4CC4)cc3)n2)n[nH]1 [Tozasertib] (partner 0.1 µM)
# In short: as §1
# BGJ398 + Phenformin = compound: CCN1CCN(c2ccc(Nc3cc(N(C)C(=O)Nc4c(Cl)c(OC)cc(OC)c4Cl)ncn3)cc2)CC1 [BGJ398] + N=C(N)NC(=N)NCCc1ccccc1 [Phenformin] (partner 250 µM)
# In short: as §1
cell line,measurement,setting,value
UMC-11,relative viability,[1]; first compound 0.02 µM,0.56
same,relative viability,[1]; first compound 0.06325 µM,0.527
same,relative viability,[1]; first compound 0.2 µM,0.552
same,relative viability,[1]; first compound 0.6325 µM,0.475
same,relative viability,[1]; first compound 2 µM,0.439
same,relative viability,[2]; first compound 0.02 µM,0.467
same,relative viability,[2]; first compound 0.06325 µM,0.523
same,relative viability,[2]; first compound 0.2 µM,0.427
same,relative viability,[2]; first compound 0.6325 µM,0.489
same,relative viability,[2]; first compound 2 µM,0.519
same,relative viability,[3]; first compound 0.02 µM,0.205
same,relative viability,[3]; first compound 0.06325 µM,0.193
same,relative viability,[3]; first compound 0.2 µM,0.202
same,relative viability,[3]; first compound 0.6325 µM,0.203
same,relative viability,[3]; first compound 2 µM,0.192
same,relative viability,BGJ398 + Phenformin; first compound 0.01 µM,0.325
same,relative viability,BGJ398 + Phenformin; first compound 0.03162 µM,0.344
same,relative viability,BGJ398 + Phenformin; first compound 0.1 µM,0.391
same,relative viability,BGJ398 + Phenformin; first compound 0.3162 µM,0.341
same,relative viability,BGJ398 + Phenformin; first compound 1 µM,0.341
